Where two headings read alike, the source gives them in different places.
Tests used:
[1] = molecular target: T1, hS1P1R (hEdg1) membrane protein (Homo sapiens, UniProt P21453); assay: hS1P1R GTPγS binding assay (Assay 3a); format: biochemical
T1 construct: purchased Lonza
Experimental: Assay 3a: The hS1P1R GTPγS binding assay was carried out at room temperature in 96 well non-binding surface assay plates. The reaction in each well contained 4 μg hS1P1R (hEdg1) membrane protein (Lonza), 30 μM GDP, 0.1 nM [^35S]GTPγS, 0.25% fatty acid free BSA, and serially diluted hS1P1R agonist compound in 200 μL assay buffer (25 mM Tris-HCl PH 7.9, 100 mM NaCl, 3 mM MgCl2, and 0.2 mM EGTA). After one hour of incubation, 0.9 mg of WGA (Wheat Germ Agglutinin) SPA beads in 50 μL of assay buffer was added to each well. The SPA beads were spun down after an additional one hour incubation. The radioactivity of the bound GTPγS was counted by reading the assay plate using a MicroBeta.

[2] = molecular target: T2, S1P1 (Homo sapiens, UniProt P21453); assay: Tango β-arrestin recruitment assay in U2OS cells (Assay 2b); format: cell-based
T2 construct: host or cells: U2OS
Description: (§1) For the Tango™ β-arrestin recruitment assay, the cytoplasmic C-terminus of S1P1 was tethered to the tTA transcriptional activator with a linker that contains a cleavage site for the N1a protease from tobacco etch virus (TEV protease). The C-terminus of the human β-arrestin2 protein was fused to TEV protease. Binding of an agonist recruits the βl -arrestin-TEV fusion protein to the receptor resulting in cleavage of the linker and released of tTA to enter the nucleus and subsequently activated a tTA-dependent luciferase reporter gene.
Assay 2b: Alternatively, U2OS cells expressing the reporter gene and S1P1 (Invitrogen) were added to the wells of a 384-well white opaque bottom assay plate (PerkinElmer) at […]. The cells were serum starved for 48 h in Freestyle medium (Invitrogen). Test compounds were tested at maximum concentrations of 1 μM for the agonist assay. Compounds were diluted in DMSO (10 concentration points, 3-fold each) and added to the assay plate at a 1% final DMSO concentration. The efficacy control was 1 μM S1P (Avanti). For each compound, there were duplicate assay plates and each assay plate had duplicate wells per concentration point. The plate was incubated overnight at 37° C. The GeneBLAzer β-lactamase assay reagent (Invitrogen) was added and the plates were incubated for an additional 2 h at room temperature. Fluorescence was measured using an EnVision plate reader (PerkinElmer, Waltham, Mass.) at an excitation wavelength of 409 nm and emission wavelengths of 460 nm and 530 nm. The emission intensity at each wavelength was background subtracted against wells containing medium only and the F460 nm/F530 nm ratio determined for each concentration of the test compounds. Percent activity was calculated as [(test compound ratio−DMSO ratio)/(positive control ratio−DMSO ratio)*100], where the positive control and DMSO ratios are from cells incubated with the efficacy control 1 μM S1P and 1% DMSO, respectively. The percent activities were plotted against compound concentration to determine EC50 using XLFit (IDBS).

[3] = molecular target: T3, hS1PR5 (hEdg8) membrane protein (Homo sapiens, UniProt Q9H228); assay: hS1P5R GTPγS binding assay (Assay 4); format: biochemical
T3 construct: expressed in transfected cells; host or cells: CHO
Experimental: The hS1PR5 GTPγS binding assay was carried out at room temperature in 96-well non-binding surface assay plates. The reaction in each well contained 5 μg hS1PR5 (hEdg8) membrane protein from CHO cells expressing hS1PR5, 30 μM GDP, 0.1 nM [^35S]GTPγS, 0.25% fatty acid free BSA, and serially-diluted Compound of the Invention in 200 μL assay buffer (25 mM Tris-HCl PH 7.9, 100 mM NaCl, 3 mM MgCl2, and 0.2 mM EGTA). After one hour of incubation, 0.9 mg of WGA (Wheat Germ Agglutinin) SPA beads in 50 μL of assay buffer was added to each well. The SPA beads were spun down after an additional one hour incubation. The radioactivity of the bound GTPγS was counted by reading the assay plate using a MicroBeta.

[4] = molecular target: T4, S1P3 (Homo sapiens, UniProt Q99500); assay: S1P3 Tango β-arrestin recruitment assay in HEK293 cells (Assay 5); format: cell-based; details: read-out: Assay 5 EC50
T4 construct: host or cells: HEK293 (transient transfection)
Description: as §1
Assay 2a: Frozen HEK293 cells transiently transfected with receptor cDNAs for S1P1 (Invitrogen) are thawed and suspended in 10 mL of Pro293a-CDM culture medium (Invitrogen) supplemented with 4 mM L-Glutamine (Invitrogen), 1× Pen/Strep (100 units/mL penicillin and 100 μg/mL streptomycin, Invitrogen) and 0.1% fatty acid free BSA (Sigma-Aldrich). Cells are added to the wells of a 384-well white opaque bottom assay plate (PerkinElmer) at 3,000-6,000 cells per well and the plate is incubated for approximately 4 h in a 37° C. incubator. Test compounds are tested at maximum concentrations of 10 μM for the agonist assays. Compounds are diluted in DMSO (10 concentration points, 3-fold each) and added to the assay plate at a 1% final DMSO concentration. For each compound, there are duplicate assay plates and each assay plate has duplicate wells per concentration point. The plate is incubated at 37° C. for 30 min. The efficacy control is 5 μM S1P (Avanti). Following agonist addition, the assay plates are incubated in a 37° C. incubator for 16-18 h. Luciferase assay reagent is added and luminescence measured in an EnVision plate reader (PerkinElmer). To determine agonist activity, percent activity is calculated as [(test compound−background)/(positive control−background)*100], where background is the luminescence of the DMSO alone control and the positive control is the luminescence from cells incubated with the efficacy control 5 μM S1P. The percent activities are plotted against compound concentration to determine EC50 using XLFit (IDBS).
This assay was conducted using the procedures described in Assay 2a, replacing S1P1 with S1P3.

[5] = * = rEC50 measured rather than EC50, read-out: Assay 2b rEC50 (relative EC50, cells marked *)

T3 sequence (Q9H228 whole entry): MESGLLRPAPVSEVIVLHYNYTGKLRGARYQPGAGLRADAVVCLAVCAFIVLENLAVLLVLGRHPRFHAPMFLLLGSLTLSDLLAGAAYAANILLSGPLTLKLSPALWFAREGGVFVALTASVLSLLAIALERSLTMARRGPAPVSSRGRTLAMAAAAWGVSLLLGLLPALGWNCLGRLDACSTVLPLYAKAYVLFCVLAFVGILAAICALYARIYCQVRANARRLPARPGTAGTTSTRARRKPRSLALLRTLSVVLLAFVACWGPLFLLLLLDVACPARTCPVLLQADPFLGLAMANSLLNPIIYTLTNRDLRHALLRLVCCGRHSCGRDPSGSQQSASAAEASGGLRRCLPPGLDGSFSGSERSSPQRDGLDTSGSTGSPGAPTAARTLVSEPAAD
T4 sequence (P32121 whole entry): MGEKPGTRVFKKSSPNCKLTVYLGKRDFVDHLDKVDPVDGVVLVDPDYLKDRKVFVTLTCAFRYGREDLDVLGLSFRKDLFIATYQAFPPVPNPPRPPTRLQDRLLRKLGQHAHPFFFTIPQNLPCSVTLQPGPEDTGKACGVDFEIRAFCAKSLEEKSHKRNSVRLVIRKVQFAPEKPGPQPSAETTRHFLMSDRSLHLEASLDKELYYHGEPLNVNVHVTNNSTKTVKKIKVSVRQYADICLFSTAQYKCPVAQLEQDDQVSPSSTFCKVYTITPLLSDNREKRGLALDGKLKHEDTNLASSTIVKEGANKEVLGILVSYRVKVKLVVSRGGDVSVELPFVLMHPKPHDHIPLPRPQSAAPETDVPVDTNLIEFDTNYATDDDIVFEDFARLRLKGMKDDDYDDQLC
T4 sequence (Q99500 whole entry): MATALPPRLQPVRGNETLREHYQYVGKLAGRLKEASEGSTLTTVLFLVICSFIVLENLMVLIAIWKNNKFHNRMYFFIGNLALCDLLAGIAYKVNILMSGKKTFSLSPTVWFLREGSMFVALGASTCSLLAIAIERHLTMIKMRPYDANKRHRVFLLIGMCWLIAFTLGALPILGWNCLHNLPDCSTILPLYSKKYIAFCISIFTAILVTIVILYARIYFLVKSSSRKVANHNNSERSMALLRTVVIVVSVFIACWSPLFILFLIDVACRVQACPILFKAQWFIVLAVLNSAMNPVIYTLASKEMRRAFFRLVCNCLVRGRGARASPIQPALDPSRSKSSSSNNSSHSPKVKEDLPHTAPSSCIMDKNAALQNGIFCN
T2 sequence (P32121 whole entry): as the sequence (P32121 whole entry) above
T2 sequence (P21453 whole entry): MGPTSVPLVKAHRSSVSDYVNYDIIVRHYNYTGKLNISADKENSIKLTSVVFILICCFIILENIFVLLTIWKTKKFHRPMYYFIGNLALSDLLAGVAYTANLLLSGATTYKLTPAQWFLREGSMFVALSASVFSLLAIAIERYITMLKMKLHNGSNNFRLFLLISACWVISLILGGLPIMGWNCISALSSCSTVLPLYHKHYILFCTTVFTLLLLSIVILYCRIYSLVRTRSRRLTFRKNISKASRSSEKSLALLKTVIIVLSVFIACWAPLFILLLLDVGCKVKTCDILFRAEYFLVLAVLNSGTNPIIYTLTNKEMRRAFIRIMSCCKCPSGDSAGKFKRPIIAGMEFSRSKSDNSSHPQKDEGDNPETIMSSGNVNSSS
T1 sequence (P21453 whole entry): as above

Molecule | EC50 [1] [nM] | EC50 ([2]; read-out: Assay 2b EC50) [nM] | EC50 [3] [nM] | EC50 [4] [nM] | EC50 [2, 5] [nM]
CC(C)Nc1ccc(-c2nnc(-c3cc(F)c(OC[C@H](N)[C@@H](C)OP(=O)(O)O)cc3Cl)s2)cn1 [Entry 85, (1R,2S)-2-amino-3-{[5-chloro-2-fluoro-4-(5-{6-[(1-methylethyl)amino]pyridin-3-yl}-1,3,4-thiadiazol-2-yl)phenyl]oxy}-1-methylpropyl dihydrogen phosphate] | ≤ 10 | ≤ 10 | 10 to 50 | > 10000 | 
CC(C)Nc1cc(-c2nnc(-c3cc(F)c(OC[C@H](N)[C@@H](C)O)cc3Cl)s2)ccn1 [Entry 57] | 50 to 250 | 50 to 250 | 250 to 2800 | > 10000 | 
CC(C)Oc1ccc(-c2nnc(-c3cc(F)c(OC[C@H](N)CO)cc3Cl)s2)cn1 [Entry 35, (2R)-2-amino-3-{[5-chloro-2-fluoro-4-(5-{6-[(1-methylethyl)oxy]pyridin-3-yl}-1,3,4-thiadiazol-2-yl)phenyl]oxy}propan-1-ol] | 250 to 2800 | 50 to 250 | 250 to 2800 | > 10000 | 
CC(C)Oc1ccc(-c2nnc(-c3cc(F)c(OC[C@@H](N)CO)cc3Cl)s2)cc1Br [Entry 11, (2S)-2-amino-3-{[4-(5-{3-bromo-4-[(1-methylethyl)oxy]phenyl}-1,3,4-thiadiazol-2-yl)-5-chloro-2-fluorophenyl]oxy}propan-1-ol] | ≤ 10 | ≤ 10 | 10 to 50 | ≤ 250 | 
Cc1cc(-c2nnc(-c3cc(F)c(OC[C@H](N)[C@@H](C)O)cc3Cl)s2)ccc1OC(C)C [Entry 60, (2R,3S)-3-amino-4-{[5-chloro-2-fluoro-4-(5-{3-methyl-4-[(1-methylethyl)oxy]phenyl}-1,3,4-thiadiazol-2-yl)phenyl]oxy}butan-2-ol] | ≤ 10 | 10 to 50 | 10 to 50 | > 10000 | 
CC(C)Oc1ccc(-c2nnc(-c3cc(F)c(OC[C@@H](N)[C@H](C)O)cc3Cl)s2)cc1Cl [Entry 71, (2S,3R)-3-amino-4-{[5-chloro-4-(5-{3-chloro-4-[(1-methylethyl)oxy]phenyl}-1,3,4-thiadiazol-2-yl)-2-fluorophenyl]oxy}butan-2-ol] | ≤ 10 |  | 10 to 50 | ≤ 250 | ≤ 10
CC(C)N(C)c1cc(-c2nnc(-c3cc(F)c(OCC(N)CO)cc3Cl)s2)cc(Cl)n1 (stereo not shown) [Entry 5, 2-amino-3-{[5-chloro-4-(5-{2-chloro-6-[methyl(1-methylethyl)amino]pyridin-4-yl}-1,3,4-thiadiazol-2-yl)-2-fluorophenyl]oxy}propan-1-ol] | 10 to 50 | ≤ 10 | 250 to 2800 | ≤ 250 | 
CC(C)Oc1ccc(-c2nnc(-c3cc(F)c(OC[C@H](N)COP(=O)(O)O)cc3Cl)s2)cc1C#N [Entry 79, (2S)-2-amino-3-{[5-chloro-4-(5-{3-cyano-4-[(1-methylethyl)oxy]phenyl}-1,3,4-thiadiazol-2-yl)-2-fluorophenyl]oxy}propyl dihydrogen phosphate] | ≤ 10 | ≤ 10 | ≤ 10 | ≤ 250 | 
(1R,2R)-2-amino-3-{[5-chloro-2-fluoro- 4-(5-{6-[(1-methylethyl)amino]pyridin- 3-yl}-1,3,4-thiadiazol-2-yl)phenyl]oxy}- 1-methylpropyl dihydrogen phosphate [Entry 102] | ≤ 10 |  | ≤ 10 | ≤ 250 | ≤ 10
CC(C)Nc1ccc(-c2nnc(-c3cc(F)c(OC[C@H](N)CO)cc3Cl)s2)cn1 [Entry 75, (2R)-2-amino-3-{[5-chloro-2-fluoro-4-(5-{6-[(1-methylethyl)amino]pyridin-3-yl}-1,3,4-thiadiazol-2-yl)phenyl]oxy}propan-1-ol] | 250 to 2800 | 10 to 50 | 250 to 2800 | > 10000 | 
CC(C)Oc1ccc(-c2nnc(-c3cc(Cl)c(OC[C@H](N)CO)c(Cl)c3)s2)cc1Cl [Entry 39, (2R)-2-amino-3-{[2,6-dichloro-4-(5-{3-chloro-4-[(1-methylethyl)oxy]phenyl}-1,3,4-thiadiazol-2-yl)phenyl]oxy}propan-1-ol] | ≤ 10 | 50 to 250 | 10 to 50 | > 10000 | 
Cc1cc(-c2nnc(-c3cc(F)c(OC[C@H](N)[C@@H](C)O)cc3Cl)s2)cnc1NC(C)C [Entry 65, (2R,3S)-3-amino-4-{[5-chloro-2-fluoro-4-(5-{5-methyl-6-[(1-methylethyl)amino]pyridin-3-yl}-1,3,4-thiadiazol-2-yl)phenyl]oxy}butan-2-ol] | 50 to 250 | 10 to 50 | 2800 to 10000 | > 10000 | 
CC(C)Nc1ccc(-c2nnc(-c3cc(F)c(OC[C@H](N)CO)cc3Cl)s2)cc1Cl [Entry 43, (2R)-2-amino-3-{[5-chloro-4-(5-{3-chloro-4-[(1-methylethyl)amino]phenyl}-1,3,4-thiadiazol-2-yl)-2-fluorophenyl]oxy}propan-1-ol] | ≤ 10 | 50 to 250 | 10 to 50 | > 10000 | 
CCCOc1ccc(-c2nnc(-c3cc(F)c(OC[C@H](N)CO)cc3Cl)s2)cc1Cl [Entry 17, (2R)-2-amino-3-[(5-chloro-4-{5-[3-chloro-4-(propyloxy)phenyl]-1,3,4-thiadiazol-2-yl}-2-fluorophenyl)oxy]propan-1-ol] | 10 to 50 | 50 to 250 | 50 to 250 | > 10000 | 
N[C@H](CO)COc1cc(Cl)c(-c2nnc(-c3cc(F)cc(Br)c3)s2)cc1F [Entry 24, (2R)-2-amino-3-({4-[5-(3-bromo-5-fluorophenyl)-1,3,4-thiadiazol-2-yl]-5-chloro-2-fluorophenyl}oxy)propan-1-ol] | 250 to 2800 | 50 to 250 | 250 to 2800 | > 10000 | 
CCOc1ccc(-c2nnc(-c3cc(F)c(OC[C@H](N)CO)cc3Cl)s2)cc1C#N [Entry 76, 5-[5-(4-{[(2R)-2-amino-3-hydroxyporpyl]oxy}-2-chloro-5-fluorophenyl)-1,3,4-thiadiazol-2-yl]-2-(ethyloxy)benzonitrile] | ≤ 10 | 10 to 50 | 50 to 250 | > 10000 | 
